Measurements: patent US20230093099A1, “COMPOUNDS AND METHODS OF TREATING CANCERS” (CULLGEN (SHANGHAI), INC., priority 2019, published 2023)

test system: RS4;11 cells; experiment: Cell viability assay (CellTiter-Glo) in RS4;11 cells; assay type: cell-based; conditions: Homo sapiens, 72 h; RS4;11 cells; cell viability, 3 days, CellTiter-Glo; read-out: IC50
Summary of the method: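 RS4;11 cells seeded at 5000 per well, exposed for 3 days to 8- or 12-point 3-fold serial dilutions. Viability read by CellTiter-Glo luminescence; IC50 fitted by nonlinear least-squares regression.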

IC50 [µM] | Structure (SMILES)
2.14 | CS(=O)(=O)c1ccc(-c2cccc3nc(Nc4ccc(N5CCN(CC(=O)NCCOCCOCCNc6cccc7c6C(=O)N(C6CCC(=O)NC6=O)C7=O)CC5)cc4)nn23)cc1 (centres unmarked) [JA-115, N-(2-(2-(2-((2-(2,6-Dioxopiperidin-3-yl)-1,3-dioxoisoindolin-4-yl)amino)ethoxy)ethoxy)ethyl)-2-(4-(4-((5-(4-(methylsulfonyl)phenyl)-[1,2,4]triazolo[1,5-a]pyridin-2-yl)amino)phenyl)piperazin-1-yl)acetamide]
0.241 | CS(=O)(=O)c1ccc(-c2cccc3nc(Nc4ccc(N5CCN(C(=O)CCOCCOCCNc6ccc7c(c6)C(=O)N(C6CCC(=O)NC6=O)C7=O)CC5)cc4)nn23)cc1 (centres unmarked) [JA-201]
> 0.5 | CS(=O)(=O)c1ccc(-c2cccc3nc(Nc4ccc(N5CCN(C(=O)CCCCCn6c(=O)n(C7CCC(=O)NC7=O)c7ccccc76)CC5)cc4)nn23)cc1 (centres unmarked) [JA-280, 3-(3-(6-(4-(4-((5-(4-(Methylsulfonyl)phenyl)-[1,2,4]triazolo[1,5-a]pyridin-2-yl)amino)phenyl)piperazin-1-yl)-6-oxohexyl)-2-oxo-2,3-dihydro-1H-benzo[d]imidazol-1-yl)piperidine-2,6-dione]
1.9 | O=C(CN1CCC(n2cc(-c3cnc4cccc(-c5cc(F)c(CN6CCOCC6)c(F)c5)c4n3)cn2)CC1)NCCCCCCNc1ccc2c(c1)C(=O)N(C1CCC(=O)NC1=O)C2=O (centres unmarked) [JA-178, 2-(4-(4-(8-(3,5-Difluoro-4-(morpholinomethyl)phenyl)quinoxalin-2-yl)-1H-pyrazol-1-yl)piperidin-1-yl)-N-(6-((2-(2,6-dioxopiperidin-3-yl)-1,3-dioxoisoindolin-5-yl)amino)hexyl)acetamide]
> 10 | Cc1cnc(Nc2ccc(N3CCN(C(=O)CCCCCCNc4ccc5c(c4)C(=O)N(C4CCC(=O)NC4=O)C5=O)CC3)cc2)nc1Nc1cccc(S(=O)(=O)NC(C)(C)C)c1 (centres unmarked) [JA-230, N-(tert-butyl)-3-((2-((4-(4-(7-((2-(2,6-dioxopiperidin-3-yl)-1,3-dioxoisoindolin-5-yl)amino)heptanoyl)piperazin-1-yl)phenyl)amino)-5-methylpyrimidin-4-yl)amino)benzenesulfonamide]
> 10 | O=C(CN1CCC(n2cc(-c3cnc4cccc(-c5cc(F)c(CN6CCOCC6)c(F)c5)c4n3)cn2)CC1)NCCOCCOCCOCCOCCNc1cccc2c1C(=O)N(C1CCC(=O)NC1=O)C2=O (centres unmarked) [JA-142, 2-[4-[4-[8-[3,5-Difluoro-4-(morpholinomethyl)phenyl]quinoxalin-2-yl]pyrazol-1-yl]-1-piperidyl]-N-[2-[2-[2-[2-[2-[[2-(2,6-dioxo-3-piperidyl)-1,3-dioxo-isoindolin-4-yl]amino]ethoxy]ethoxy]ethoxy]ethoxy]ethyl]acetamide]
1.24 | CS(=O)(=O)c1ccc(-c2cccc3nc(Nc4ccc(N5CCN(CC(=O)NCCNc6ccc7c(c6)C(=O)N(C6CCC(=O)NC6=O)C7=O)CC5)cc4)nn23)cc1 (centres unmarked) [JA-207, N-(2-((2-(2,6-Dioxopiperidin-3-yl)-1,3-dioxoisoindolin-5-yl)amino)ethyl)-2-(4-(4-((5-(4-(methylsulfonyl)phenyl)-[1,2,4]triazolo[1,5-a]pyridin-2-yl)amino)phenyl)piperazin-1-yl)acetamide]

Second part, the compound before the results:

Structure (SMILES) | IC50 [µM]
Cc1cnc(Nc2ccc(N3CCN(C(=O)CCOCCOCCC(=O)N[C@H](C(=O)N4C[C@H](O)C[C@H]4C(=O)NCc4ccc(-c5scnc5C)cc4)C(C)(C)C)CC3)cc2)nc1Nc1cccc(S(=O)(=O)NC(C)(C)C)c1 [JA-033, (2S,4R)-1-((S)-2-(3-(2-(3-(4-(4-((4-((3-(N-(tert-Butyl)sulfamoyl)phenyl)amino)-5-methylpyrimidin-2-yl)amino)phenyl)piperazin-1-yl)-3-oxopropoxy)ethoxy)propanamido)-3,3-dimethylbutanoyl)-4-hydroxy-N-(4-(4-methylthiazol-5-yl)benzyl)pyrrolidine-2-carboxamide] | > 10
CS(=O)(=O)c1ccc(-c2cccc3nc(Nc4ccc(N5CCN(C(=O)CCCCCNc6cccc7c6C(=O)N(C6CCC(=O)NC6=O)C7=O)CC5)cc4)nn23)cc1 (centres unmarked) [JA-013, 2-(2,6-Dioxo-piperidin-3-yl)-4-[6-(4-{4-[5-(4-methanesulfonyl-phenyl)-[1,2,4]triazolo[1,5-a]pyridin-2-ylamino]-phenyl}-piperazin-1-yl)-6-oxo-hexylamino]-isoindole-1,3-dione] | > 10
Cc1ncsc1-c1ccc(CNC(=O)[C@@H]2C[C@@H](O)CN2C(=O)[C@@H](NC(=O)CCCCCCCC(=O)N2CCC(n3cc(-c4cnc5cccc(-c6cc(F)c(CN7CCOCC7)c(F)c6)c5n4)cn3)CC2)C(C)(C)C)cc1 [JA-051, (2S,4R)-1-[(2S)-2-[[9-[4-[4-[8-[3,5-Difluoro-4-(morpholinomethyl)phenyl]quinoxalin-2-yl]pyrazol-1-yl]-1-piperidyl]-9-oxo-nonanoyl]amino]-3,3-dimethyl-butanoyl]-4-hydroxy-N-[[4-(4-methylthiazol-5-yl)phenyl]methyl]pyrrolidine-2-carboxamide] | 4.64
Cc1ncsc1-c1ccc(CNC(=O)[C@@H]2C[C@@H](O)CN2C(=O)[C@@H](NC(=O)CCCCCCC(=O)N2CCN(c3ccc(Nc4nc5cccc(-c6ccc(S(C)(=O)=O)cc6)n5n4)cc3)CC2)C(C)(C)C)cc1 [JA-062, (2S,4R)-1-((S)-3,3-Dimethyl-2-(8-(4-(4-((5-(4-(methylsulfonyl)phenyl)-[1,2,4]triazolo[1,5-a]pyridin-2-yl)amino)phenyl)piperazin-1-yl)-8-oxooctanamido)butanoyl)-4-hydroxy-N-(4-(4-methylthiazol-5-yl)benzyl)pyrrolidine-2-carboxamide] | > 10
Cc1cnc(Nc2ccc(N3CCN(CC(=O)NCCC(=O)N[C@H](C(=O)N4C[C@H](O)C[C@H]4C(=O)NCc4ccc(-c5scnc5C)cc4)C(C)(C)C)CC3)cc2)nc1Nc1cccc(S(=O)(=O)NC(C)(C)C)c1 [JA-098, (2S,4R)-1-((S)-2-(3-(2-(4-(4-((4-((3-(N-(tert-Butyl)sulfamoyl)phenyl)amino)-5-methylpyrimidin-2-yl)amino)phenyl)piperazin-1-yl)acetamido)propanamido)-3,3-dimethylbutanoyl)-4-hydroxy-N-(4-(4-methylthiazol-5-yl)benzyl)pyrrolidine-2-carboxamide] | > 10
Cc1cnc(Nc2ccc(N3CCN(C(=O)CCCCCCC(=O)N[C@H](C(=O)N4C[C@H](O)C[C@H]4C(=O)NCc4ccc(-c5scnc5C)cc4)C(C)(C)C)CC3)cc2)nc1Nc1cccc(S(=O)(=O)NC(C)(C)C)c1 [JA-026, (2S,4R)-1-((S)-2-(8-(4-(4-((4-((3-(N-(tert-Butyl)sulfamoyl)phenyl)amino)-5-methylpyrimidin-2-yl)amino)phenyl)piperazin-1-yl)-8-oxooctanamido)-3,3-dimethylbutanoyl)-4-hydroxy-N-(4-(4-methylthiazol-5-yl)benzyl)pyrrolidine-2-carboxamide] | > 10
Cc1cnc(Nc2ccc(N3CCN(C(=O)CCCCCC(=O)N[C@H](C(=O)N4C[C@H](O)C[C@H]4C(=O)NCc4ccc(-c5scnc5C)cc4)C(C)(C)C)CC3)cc2)nc1Nc1cccc(S(=O)(=O)NC(C)(C)C)c1 [JA-025, (2S,4R)-1-((S)-2-(7-(4-(4-((4-((3-(N-(tert-Butyl)sulfamoyl)phenyl)amino)-5-methylpyrimidin-2-yl)amino)phenyl)piperazin-1-yl)-7-oxoheptanamido)-3,3-dimethylbutanoyl)-4-hydroxy-N-(4-(4-methylthiazol-5-yl)benzyl)pyrrolidine-2-carboxamide] | > 10
